# Reference: ChEMBL document CHEMBL3112450, “Synthesis and in vitro antitumor evaluation of primary amine substituted quinazoline linked benzimidazole” (Bioorg Med Chem Lett, 2014)
# What was measured:
# Format in all cases: functional
# ACHN = experiment: Cytotoxicity against human ACHN cells assessed as cell growth at 10^-8 M after 48 hrs by SRB assay; settings: read-out: Activity
# HCT-116 = experiment: Cytotoxicity against human HCT116 cells after 48 hrs by SRB assay; settings: HCT-116, 48 h
# HL-60(TB) [1] = experiment: Cytotoxicity against human HL-60(TB) cells after 48 hrs by SRB assay; settings: HL-60, 48 h
# OVCAR-3 [2] = experiment: Cytotoxicity against human OVCAR3 cells assessed as cell growth at 10^-7 M after 48 hrs by SRB assay; settings: OVCAR-3, 48 h, read-out: Activity
# MDA-MB-435 = experiment: Cytotoxicity against human MDA-MB-435 cells after 48 hrs by SRB assay; settings: MDA-MB-435, 48 h
# OVCAR-3 [3] = experiment: Cytotoxicity against human OVCAR3 cells assessed as cell growth at 10^-8 M after 48 hrs by SRB assay; settings: OVCAR-3, 48 h, read-out: Activity
# Malme-3M [4] = experiment: Cytotoxicity against human MALME-3M cells assessed as cell growth at 10^-4 M after 48 hrs by SRB assay; settings: read-out: Activity
# SK-MEL-28 = experiment: Cytotoxicity against human SK-MEL-28 cells assessed as cell growth at 10^-8 M after 48 hrs by SRB assay; settings: SK-MEL-28, 48 h, read-out: Activity
# SF-268 [5] = experiment: Cytotoxicity against human SF268 cells assessed as cell growth at 10^-7 M after 48 hrs by SRB assay; settings: SF-268, 48 h, read-out: Activity
# [6] = Cytotoxicity against human OVCAR4 cells assessed as cell growth at 10^-8 M after 48 hrs by SRB assay; settings: OVCAR-4, 48 h, read-out: Activity
# SN12C = experiment: Cytotoxicity against human SN12C cells assessed as cell growth at 10^-4 M after 48 hrs by SRB assay; settings: read-out: Activity
# [7] = Cytotoxicity against human OVCAR4 cells after 48 hrs by SRB assay; settings: OVCAR-4, 48 h
# BT-549 = experiment: Cytotoxicity against human BT549 cells assessed as growth inhibition at 10 uM after 48 hrs by SRB assay; settings: BT-549, 48 h, read-out: GI
# SF-295 = experiment: Cytotoxicity against human SF295 cells assessed as cell growth at 10^-6 M after 48 hrs by SRB assay; settings: SF-295, 48 h, read-out: Activity
# IGROV-1 [8] = experiment: Cytotoxicity against human IGROV1 cells assessed as cell growth at 10^-8 M after 48 hrs by SRB assay; settings: IGROV-1, 48 h, read-out: Activity
# HOP-92 [9] = experiment: Cytotoxicity against human HOP92 cells assessed as cell growth at 10^-8 M after 48 hrs by SRB assay; settings: HOP-92, 48 h, read-out: Activity
# U-251 = experiment: Cytotoxicity against human U251 cells after 48 hrs by SRB assay; settings: U-251, 48 h
# UACC-62 = experiment: Cytotoxicity against human UACC62 cells after 48 hrs by SRB assay; settings: UACC-62, 48 h; for CC50: read-out: LC50 (the source's name)
# OVCAR-3 [10] = experiment: Cytotoxicity against human OVCAR3 cells after 48 hrs by SRB assay; settings: OVCAR-3, 48 h
# M14 = experiment: Cytotoxicity against human M14 cells assessed as cell growth at 10^-8 M after 48 hrs by SRB assay; settings: M14, 48 h, read-out: Activity
# HL-60(TB) [11] = experiment: Cytotoxicity against human HL-60(TB) cells assessed as cell growth at 10^-4 M after 48 hrs by SRB assay; settings: HL-60, 48 h, read-out: Activity
# COLO 205 = experiment: Cytotoxicity against human COLO205 cells assessed as cell growth at 10^-7 M after 48 hrs by SRB assay; settings: COLO 205, 48 h, read-out: Activity
# PC-3 = experiment: Cytotoxicity against human PC3 cells assessed as cell growth at 10^-7 M after 48 hrs by SRB assay; settings: PC-3, 48 h, read-out: Activity
# Malme-3M [12] = experiment: Cytotoxicity against human MALME-3M cells assessed as cell growth at 10^-7 M after 48 hrs by SRB assay; settings: read-out: Activity
# SR [13] = experiment: Cytotoxicity against human SR cells assessed as cell growth at 10^-6 M after 48 hrs by SRB assay; settings: read-out: Activity
# TK-10 [14] = experiment: Cytotoxicity against human TK10 cells assessed as cell growth at 10^-4 M after 48 hrs by SRB assay; settings: TK-10, 48 h, read-out: Activity
# HOP-92 [15] = experiment: Cytotoxicity against human HOP92 cells assessed as cell growth at 10^-4 M after 48 hrs by SRB assay; settings: HOP-92, 48 h, read-out: Activity
# A549 = experiment: Cytotoxicity against human A549 cells assessed as cell growth at 10^-6 M after 48 hrs by SRB assay; settings: A549, 48 h, read-out: Activity
# OVCAR-8 = experiment: Cytotoxicity against human OVCAR8 cells assessed as cell growth at 10^-7 M after 48 hrs by SRB assay; settings: OVCAR-8, 48 h, read-out: Activity
# IGROV-1 [16] = experiment: Cytotoxicity against human IGROV1 cells assessed as cell growth at 10^-4 M after 48 hrs by SRB assay; settings: IGROV-1, 48 h, read-out: Activity
# SF-268 [17] = experiment: Cytotoxicity against human SF268 cells assessed as cell growth at 10^-6 M after 48 hrs by SRB assay; settings: SF-268, 48 h, read-out: Activity
# [18] = Cytotoxicity against human NCI-ADR-RES cells assessed as cell growth at 10^-8 M after 48 hrs by SRB assay; settings: read-out: Activity
# Malme-3M [19] = experiment: Cytotoxicity against human MALME-3M cells assessed as cell growth at 10^-8 M after 48 hrs by SRB assay; settings: read-out: Activity
# HCC 2998 = experiment: Cytotoxicity against human HCC2998 cells assessed as cell growth at 10^-6 M after 48 hrs by SRB assay; settings: HCC 2998, 48 h, read-out: Activity
# NCI-H522 = experiment: Cytotoxicity against human NCI-H522 cells assessed as cell growth at 10^-4 M after 48 hrs by SRB assay; settings: NCI-H522, 48 h, read-out: Activity
# TK-10 [20] = experiment: Cytotoxicity against human TK10 cells assessed as cell growth at 10^-8 M after 48 hrs by SRB assay; settings: TK-10, 48 h, read-out: Activity
# CCRF-CEM = experiment: Cytotoxicity against human CCRF-CEM cells assessed as cell growth at 10^-7 M after 48 hrs by SRB assay; settings: read-out: Activity
# HT-29 = experiment: Cytotoxicity against human HT-29 cells assessed as growth inhibition at 10 uM after 48 hrs by SRB assay; settings: HT-29, 48 h, read-out: GI
# SR [21] = experiment: Cytotoxicity against human SR cells assessed as cell growth at 10^-7 M after 48 hrs by SRB assay; settings: read-out: Activity
# [22] = Cytotoxicity against human UO31 cells assessed as cell growth at 10^-4 M after 48 hrs by SRB assay; settings: UO-31, 48 h, read-out: Activity
smiles,measurement,setting,value
C=CCn1c(C)nc2ccc(Nc3nc(Nc4ccc(F)cc4)nc4ccccc34)cc21,growth at 0.01 µM,ACHN,98%
same,GI50,HCT-116,2.41 µM
same,LC50 (concentration killing 50% of cells),HCT-116,39.1 µM
same,TGI,HCT-116,7.67 µM
same,GI50,HL-60(TB) [1],4.95 µM
same,LC50,HL-60(TB) [1],> 100 µM
same,TGI,HL-60(TB) [1],23.3 µM
same,growth at 0.1 µM,OVCAR-3 [2],98%
same,GI50,MDA-MB-435,4 µM
same,LC50 (concentration killing 50% of cells),MDA-MB-435,92.4 µM
same,TGI,MDA-MB-435,20.4 µM
same,growth at 0.01 µM,OVCAR-3 [3],97%
same,growth at 100 µM,Malme-3M [4],-51%
same,growth at 0.01 µM,SK-MEL-28,95%
same,growth at 0.1 µM,SF-268 [5],90%
same,growth at 0.01 µM,[6],96%
same,growth at 100 µM,SN12C,-49%
same,GI50,[7],2.06 µM
same,LC50,[7],> 100 µM
same,TGI,[7],5.81 µM
same,inhibition of growth at 10 µM,BT-549,40%
same,growth at 1 µM,SF-295,91%
same,growth at 0.01 µM,IGROV-1 [8],95%
same,growth at 0.01 µM,HOP-92 [9],95%
same,GI50,U-251,3.15 µM
same,TGI,U-251,14.9 µM
same,CC50,U-251; read-out: LC50 (the source's name),48.9 µM
same,GI50,UACC-62,1.8 µM
same,TGI,UACC-62,3.7 µM
same,CC50,UACC-62,7.59 µM
same,GI50,OVCAR-3 [10],5.04 µM
same,LC50,OVCAR-3 [10],46.3 µM
same,TGI,OVCAR-3 [10],17.8 µM
same,growth at 0.01 µM,M14,93%
same,growth at 100 µM,HL-60(TB) [11],-45%
same,growth at 0.1 µM,COLO 205,103%
same,growth at 0.1 µM,PC-3,92%
same,growth at 0.1 µM,Malme-3M [12],98%
same,growth at 1 µM,SR [13],92%
same,growth at 100 µM,TK-10 [14],-63%
same,growth at 100 µM,HOP-92 [15],-84%
same,growth at 1 µM,A549,89%
same,growth at 0.1 µM,OVCAR-8,94%
same,growth at 100 µM,IGROV-1 [16],-51%
same,growth at 1 µM,SF-268 [17],94%
same,growth at 0.01 µM,[18],100%
same,growth at 0.01 µM,Malme-3M [19],97%
same,growth at 1 µM,HCC 2998,98%
same,growth at 100 µM,NCI-H522,-58%
same,growth at 0.01 µM,TK-10 [20],99%
same,growth at 0.1 µM,CCRF-CEM,102%
same,inhibition of growth at 10 µM,HT-29,70%
same,growth at 0.1 µM,SR [21],98%
same,growth at 100 µM,[22],-82%
C=CCn1c(C)nc2ccc(Nc3nc(Nc4ccc5nc(C)n(CC=C)c5c4)c4ccccc4n3)cc21,growth at 0.01 µM,ACHN,103%
same,GI50,HCT-116,1.37 µM
same,GI50,HL-60(TB) [1],1.86 µM
same,TGI,HL-60(TB) [1],3.72 µM
same,growth at 0.1 µM,OVCAR-3 [2],96%
same,GI50,MDA-MB-435,1.73 µM
same,TGI,MDA-MB-435,3.33 µM
same,growth at 0.01 µM,OVCAR-3 [3],99%
same,growth at 100 µM,Malme-3M [4],-5%
same,growth at 0.01 µM,SK-MEL-28,98%
same,growth at 0.1 µM,SF-268 [5],86%
same,growth at 0.01 µM,[6],99%
same,growth at 100 µM,SN12C,-50%
same,GI50,[7],1.53 µM
same,TGI,[7],2.87 µM
same,inhibition of growth at 10 µM,BT-549,30%
same,growth at 1 µM,SF-295,97%
same,growth at 0.01 µM,IGROV-1 [8],100%
same,growth at 0.01 µM,HOP-92 [9],92%
same,GI50,U-251,1.62 µM
same,TGI,U-251,2.97 µM
same,GI50,UACC-62,1.55 µM
same,TGI,UACC-62,2.89 µM
same,CC50,UACC-62,5.38 µM
same,GI50,OVCAR-3 [10],1.7 µM
same,TGI,OVCAR-3 [10],3.08 µM
same,growth at 0.01 µM,M14,96%
same,growth at 100 µM,HL-60(TB) [11],-32%
same,growth at 0.1 µM,COLO 205,101%
same,growth at 0.1 µM,PC-3,88%
same,growth at 0.1 µM,Malme-3M [12],92%
same,growth at 1 µM,SR [13],72%
same,growth at 100 µM,TK-10 [14],-49%
same,growth at 100 µM,HOP-92 [15],-47%
same,growth at 1 µM,A549,93%
same,growth at 0.1 µM,OVCAR-8,102%
same,growth at 100 µM,IGROV-1 [16],-25%
same,growth at 1 µM,SF-268 [17],79%
same,growth at 0.01 µM,[18],99%
same,growth at 0.01 µM,Malme-3M [19],91%
same,growth at 1 µM,HCC 2998,96%
same,growth at 100 µM,NCI-H522,-15%
same,growth at 0.01 µM,TK-10 [20],100%
same,growth at 0.1 µM,CCRF-CEM,96%
same,growth at 0.1 µM,SR [21],93%
same,growth at 100 µM,[22],-46%
